{"source": "ChEMBL document CHEMBL1671622", "about": "“Novel mutation in 23S rRNA that confers low-level resistance to clarithromycin in Helicobacter pylori” (2008)", "format_in_all_cases": "functional", "key": {"Helicobacter pylori [1]": {"test_system": "Helicobacter pylori", "assay": "Antimicrobial activity against Helicobacter pylori"}, "Helicobacter pylori [2]": {"test_system": "Helicobacter pylori", "assay": "Antimicrobial activity against Helicobacter pylori TS1900"}, "Helicobacter pylori [3]": {"test_system": "Helicobacter pylori", "assay": "Antimicrobial activity against Helicobacter pylori TS1776"}, "Helicobacter pylori [4]": {"test_system": "Helicobacter pylori", "assay": "Antimicrobial activity against compound-resistant Helicobacter pylori harboring 23S rRNA mutant gene"}, "Helicobacter pylori [5]": {"test_system": "Helicobacter pylori", "assay": "Antimicrobial activity against clarithromycin-susceptible Helicobacter pylori ATCC 700392 transformant harboring 23S rRNA of Helicobacter pylori TS1900"}, "Helicobacter pylori [6]": {"test_system": "Helicobacter pylori", "assay": "Antimicrobial activity against Helicobacter pylori S1900"}, "Helicobacter pylori [7]": {"test_system": "Helicobacter pylori", "assay": "Antimicrobial activity against Helicobacter pylori TF1"}, "Helicobacter pylori [8]": {"test_system": "Helicobacter pylori", "assay": "Antimicrobial activity against Helicobacter pylori TF2"}, "Helicobacter pylori [9]": {"test_system": "Helicobacter pylori", "assay": "Antimicrobial activity against Helicobacter pylori TF3"}, "Helicobacter pylori [10]": {"test_system": "Helicobacter pylori", "assay": "Antimicrobial activity against Helicobacter pylori TF4"}}}
{"smiles": "CC[C@H]1OC(=O)[C@H](C)[C@@H](O[C@H]2C[C@@](C)(OC)[C@@H](O)[C@H](C)O2)[C@H](C)[C@@H](O[C@@H]2O[C@H](C)C[C@H](N(C)C)[C@H]2O)[C@](C)(OC)C[C@@H](C)C(=O)[C@H](C)[C@@H](O)[C@]1(C)O", "note": "[CLARITHROMYCIN]", "values": [{"measurement": "MIC", "setting": "Helicobacter pylori [1]", "result": "≥ 0.125", "unit": "µg/mL"}, {"measurement": "MIC", "setting": "Helicobacter pylori [2]", "result": 1, "unit": "µg/mL"}, {"measurement": "MIC", "setting": "Helicobacter pylori [3]", "result": 0.5, "unit": "µg/mL"}, {"measurement": "MIC", "setting": "Helicobacter pylori [4]", "result": 2, "unit": "µg/mL"}, {"measurement": "MIC", "setting": "Helicobacter pylori [5]", "result": "≤ 0.008", "unit": "µg/mL"}, {"measurement": "MIC", "setting": "Helicobacter pylori [6]", "result": 1, "unit": "µg/mL"}, {"measurement": "MIC", "setting": "Helicobacter pylori [7]", "result": 0.5, "unit": "µg/mL"}, {"measurement": "MIC", "setting": "Helicobacter pylori [8]", "result": 0.25, "unit": "µg/mL"}, {"measurement": "MIC", "setting": "Helicobacter pylori [9]", "result": 1, "unit": "µg/mL"}, {"measurement": "MIC", "setting": "Helicobacter pylori [10]", "result": 1, "unit": "µg/mL"}]}
